Data as given in the supplement of paper PMC10307832.

How the values were obtained:
Test in all cases: relative viability (nuclei count vs DMSO), 5 days (fraction); higher = more cells survive
NCI-H2009 = test system: NCI-H2009
In short: (§1)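 One day after seeding in 1536-well plates, lung cancer cell lines were dosed by pin tool. Dosing was either single-drug or a fixed anchor-drug dose plus five library-drug doses (not always all listed) in √10 steps. After 5 days, nuclei were stained in one fix-and-stain step and counted on 4× images, and relative viability is the nuclei count of treated wells over that of vehicle wells, given as the median of duplicate plates.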

NCI-H460 = test system: NCI-H460
In short: as §1

ABC-1 = test system: ABC-1
In short: as §1

NCI-H727 = test system: NCI-H727
In short: as §1

PC-3 [JPC-3] = test system: PC-3 [JPC-3]
In short: as §1

NCI-H1355 = test system: NCI-H1355
In short: as §1

NCI-H2347 = test system: NCI-H2347
In short: as §1

SW 1573 = test system: SW 1573
In short: as §1

PC-14 = test system: PC-14
In short: as §1

SK-LU-1 = test system: SK-LU-1
In short: as §1

NCI-H441 = test system: NCI-H441
In short: as §1

NCI-H647 = test system: NCI-H647
In short: as §1

O=C(O)CCCCC(CCSCc1ccccc1)SCc1ccccc1 (stereo not drawn) [CPI-613] + COc1cccc2cc(-c3nc([C@H]4CC[C@H](C(=O)O)CC4)n4ncnc(N)c34)[nH]c12 [OSI-027] (partner 0.5 µM)
relative viability (NCI-H2009; first compound 50 µM): 0.46 | relative viability (NCI-H2009; first compound 158.11 µM): 0.0782 | relative viability (NCI-H2009; first compound 500 µM): 0.0289 | relative viability (NCI-H460; first compound 5 µM): 0.636 | relative viability (NCI-H460; first compound 15.81 µM): 0.422 | relative viability (NCI-H460; first compound 50 µM): 0.535 | relative viability (NCI-H460; first compound 158.11 µM): 0.173 | relative viability (NCI-H460; first compound 500 µM): 0.0125 | relative viability (ABC-1; first compound 5 µM): 0.404 | relative viability (ABC-1; first compound 15.81 µM): 0.443 | relative viability (ABC-1; first compound 50 µM): 0.49 | relative viability (ABC-1; first compound 158.11 µM): 0.175 | relative viability (ABC-1; first compound 500 µM): 0.167 | relative viability (NCI-H727; first compound 5 µM): 0.554 | relative viability (NCI-H727; first compound 15.81 µM): 0.624 | relative viability (NCI-H727; first compound 50 µM): 0.461 | relative viability (NCI-H727; first compound 158.11 µM): 0.339 | relative viability (NCI-H727; first compound 500 µM): 0.334 | relative viability (PC-3 [JPC-3]; first compound 5 µM): 0.753 | relative viability (PC-3 [JPC-3]; first compound 15.81 µM): 0.658 | relative viability (PC-3 [JPC-3]; first compound 50 µM): 0.729 | relative viability (PC-3 [JPC-3]; first compound 158.11 µM): 0.517 | relative viability (PC-3 [JPC-3]; first compound 500 µM): 0.276 | relative viability (NCI-H1355; first compound 5 µM): 0.388 | relative viability (NCI-H1355; first compound 15.81 µM): 0.347 | relative viability (NCI-H1355; first compound 50 µM): 0.345 | relative viability (NCI-H1355; first compound 158.11 µM): 0.29 | relative viability (NCI-H1355; first compound 500 µM): 0.0712 | relative viability (NCI-H2347; first compound 5 µM): 0.325 | relative viability (NCI-H2347; first compound 15.81 µM): 0.407 | relative viability (NCI-H2347; first compound 50 µM): 0.336 | relative viability (NCI-H2347; first compound 158.11 µM): 0.373 | relative viability (NCI-H2347; first compound 500 µM): 0.456 | relative viability (SW 1573; first compound 5 µM): 0.592 | relative viability (SW 1573; first compound 15.81 µM): 0.444 | relative viability (SW 1573; first compound 50 µM): 0.498 | relative viability (SW 1573; first compound 158.11 µM): 0.0962 | relative viability (SW 1573; first compound 500 µM): 0.056 | relative viability (PC-14; first compound 5 µM): 0.736 | relative viability (PC-14; first compound 15.81 µM): 0.756 | relative viability (PC-14; first compound 50 µM): 0.702 | relative viability (PC-14; first compound 158.11 µM): 0.0567 | relative viability (PC-14; first compound 500 µM): 0.0096 | relative viability (SK-LU-1; first compound 5 µM): 0.285 | relative viability (SK-LU-1; first compound 15.81 µM): 0.26 | relative viability (SK-LU-1; first compound 50 µM): 0.296 | relative viability (SK-LU-1; first compound 158.11 µM): 0.152 | relative viability (SK-LU-1; first compound 500 µM): 0.0346 | relative viability (NCI-H441; first compound 5 µM): 0.615 | relative viability (NCI-H441; first compound 15.81 µM): 0.596 | relative viability (NCI-H441; first compound 50 µM): 0.586 | relative viability (NCI-H441; first compound 158.11 µM): 0.255 | relative viability (NCI-H441; first compound 500 µM): 0.0397 | relative viability (NCI-H647; first compound 5 µM): 0.667 | relative viability (NCI-H647; first compound 15.81 µM): 0.498 | relative viability (NCI-H647; first compound 50 µM): 0.445 | relative viability (NCI-H647; first compound 158.11 µM): 0.147 | relative viability (NCI-H647; first compound 500 µM): 0.0299
